Experimental data taken from patent US12029730B2, “Pharmaceutical composition for preventing or treating cancer, containing N-1H-benzimidazol-2-yl-3-(1H-pyrrole-1-yl)benzamide as active ingredient” (KOREA INSTITUTE OF RADIOLOGICAL & MEDICAL SCIENCES, priority 2018, dated 2024).

Key:
MASTL kinase = target: T1, MASTL kinase (Homo sapiens, UniProt Q96GX5); assay: ADP-Glo luminescence-kinase assay; format: biochemical; conditions: 10 μM ATP, FIG. 2
T1 construct: GST; purchased Thermo Fisher Scientific
T1 sequence (Q96GX5 1-879): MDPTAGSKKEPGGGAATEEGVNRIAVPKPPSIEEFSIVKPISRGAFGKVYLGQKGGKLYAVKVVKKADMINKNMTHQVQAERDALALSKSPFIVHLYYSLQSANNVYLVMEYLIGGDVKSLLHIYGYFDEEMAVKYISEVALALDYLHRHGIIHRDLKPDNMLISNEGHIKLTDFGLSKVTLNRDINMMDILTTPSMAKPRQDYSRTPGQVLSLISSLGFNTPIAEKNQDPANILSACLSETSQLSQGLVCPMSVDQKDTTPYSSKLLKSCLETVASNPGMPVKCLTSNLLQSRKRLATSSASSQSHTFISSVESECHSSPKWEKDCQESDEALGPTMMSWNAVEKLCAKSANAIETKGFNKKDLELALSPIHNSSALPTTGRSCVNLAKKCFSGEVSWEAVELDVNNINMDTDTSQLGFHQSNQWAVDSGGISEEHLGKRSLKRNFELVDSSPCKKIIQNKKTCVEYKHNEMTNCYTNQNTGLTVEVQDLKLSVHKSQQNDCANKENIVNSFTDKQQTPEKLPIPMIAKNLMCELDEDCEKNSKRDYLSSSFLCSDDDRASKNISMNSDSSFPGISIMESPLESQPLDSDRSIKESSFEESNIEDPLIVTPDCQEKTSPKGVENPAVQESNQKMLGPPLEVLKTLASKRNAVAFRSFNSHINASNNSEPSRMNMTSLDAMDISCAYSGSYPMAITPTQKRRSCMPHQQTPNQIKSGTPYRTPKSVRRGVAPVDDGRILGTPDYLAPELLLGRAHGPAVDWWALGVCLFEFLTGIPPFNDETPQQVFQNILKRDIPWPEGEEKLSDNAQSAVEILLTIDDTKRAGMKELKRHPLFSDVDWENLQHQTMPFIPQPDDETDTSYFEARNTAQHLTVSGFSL
Description: A protein kinase analysis was performed using the ADP-Glo™ kinase assay kit according to the standard protocol provided by Promega. […] A solution of a serial 2-fold dilution of the MASTL kinase inhibitor (GKI-1, MKI-1 or AT13148) was prepared and MASTL kinase […], ENSA 250 ng and 10 μM ATP was mixed in a kinase reaction buffer consisting of 100 mM Tris-HCl (pH 7.5), 30 mM MgCl2, 2 mM DTT, 1 mM EDTA and 10 μM ultra-pure ATP (Promega). Thereafter, the mixture was reacted at 30° C. for 30 minutes in an E-tube, and a kinase detection reagent was added thereto, followed by reacting for 30 minutes to detect the converted ATP. Then, the reacted product was transferred to a 384-well white plate, and […] was read using a SpectraMax i3× Multi-Mode Microplate Reader (Molecular Devices), and GKI-1, N-(4-chlorophenyl)-3-(1H-pyrazol-4-yl)aniline and AT13148 were used as positive controls. The effect of inhibiting kinase activity of GKI-1 and MKI-1 and its IC50 confirmed through the reading result were shown in FIG. 2. In addition, enzyme activity assay was performed under the same conditions except for the treatment of each concentration of MKI-1 (0, 6.25, 12.5, 25, 50 and 100 μM) through western blot, and it was shown in FIG. 3.

[1] = tested on: CD44^high/CD24^low MCF7 cells; assay: Colonogenic assay and western blotting with 2.5 Gy radiation, radioresistant CD44high/CD24low MCF7; format: cell-based, human; conditions: for sensitivity to radiation therapy (colony number): CD44high/CD24low MCF7, 2.5 Gy, compared to DMSO, FIG. 11A/11B
Description: A colonogenic assay was performed in order to confirm whether the sensitivity to the radiation treatment effect was increased even in the CD44^high/CD24^low MCF7 cancer cell line having a radioresistant phenotype, when it was treated with MKI-1. First, breast cancer cells CD44^high/CD24^low MCF7 (500-1000 cells) were placed in a 60-mm tissue culture medium on a 60 mm culture plate, and treated with MASTL kinase inhibitors (AT13148, MKI-1 and GKI-1), respectively, and then was treated with 2.5 Gy radiation by Biobeam GM8000 (Gamma-Gamma-Service Medical GmbH, Leipzig, Germany) and the control group was not treated with radiation. After 10 to 14 days, the cell colonies were fixed with methanol and stained with 0.5% crystal violet, and the results were shown in FIG. 11A, and the number of colonies shown in the above results was quantified using Image J software to show in 11B, and then western blotting was performed and the results thereof were shown in FIG. 11C.

MCF7 cells = assay: Colony formation analysis; format: cell-based, human; conditions: MCF7, cultured 15 days, compared to DMSO, FIG. 7
Description: Colony formation analysis was performed to confirm whether the selected MKI-1 can effectively kill cancer cells. First, breast cancer cells MCF7 (500-1000 cells) were cultured in a 60 mm culture plate, and after 24 hours, it was treated with MASTL kinase inhibitors (AT13148, MKI-1 and GKI-1), respectively and cultured for 15 days. Cells were fixed and stained with […] to which methanol was added to quantify the number of colonies, which was shown in FIG. 7.

[2] = CD44high/CD24low MCF7, after radiation treatment, FIG. 11C

Structure (SMILES)	IC50 (MASTL kinase) [µM]	sensitivity to radiation therapy (colony number) [1]	expression levels of cleaved-PARP and phosphorylated Chk2 [1, 2]	expression levels of procaspase-2 [1, 2]	number of cancer cell colonies (MCF7 cells)
O=C(Nc1nc2ccccc2[nH]1)c1cccc(-n2cccc2)c1 [MKI-1, N-1H-benzimidazol-2-yl-3-(1H-pyrrol-1-yl) benzamide]	11.6	significant increase in sensitivity to radiation treatment	increased	decreased	significantly reduced
Clc1ccc(Nc2cccc(-c3cn[nH]c3)c2)cc1 [GKI-1, N-(4-chlorophenyl)-3-(1H-pyrazol-4-yl)aniline, reference compound]	12	no synergistic effect	–	–	hardly decreased
